# Assay results taken from PubChem BioAssay AID1745844 (Carcinogenic Potency Database (CPDB), 2022).
# Activity calls are given as the source filed them. The rule behind the calls is not given here.
# Tested on: rodent lifetime carcinogenesis bioassay, tumor incidence TD50
# Test: chronic cancer bioassays in animals – CPDB, compiled studies (AID 1745844)
# [1] = rat, strain Fischer 344, females, in feed, site: any site (literature study), lesion: several types, types named in the paper, dosed 78 weeks, study length 106 weeks
# [2] = rat, strain Fischer 344, females, in feed, site: liver, lesion: hepatocellular adenoma + hepatocellular carcinoma + neoplastic nodule, dosed 78 weeks, study length 106 weeks
structure (smiles),measurement,setting,value
c1ccc(NNc2ccccc2)cc1,TD50,"mouse, strain B6C3F1, females, in feed, site: any site (literature study), lesion: several types, types named in the paper, dosed 78 weeks, study length 95 weeks",31.5 mg/kg/day
same,TD50,"mouse, strain B6C3F1, females, in feed, site: liver, lesion: hepatocellular adenoma + hepatocellular carcinoma + neoplastic nodule, dosed 78 weeks, study length 95 weeks",26 mg/kg/day
same,TD50,"mouse, strain B6C3F1, females, in feed, site: liver, lesion: hepatocellular adenoma + hepatocellular carcinoma, dosed 78 weeks, study length 95 weeks",26 mg/kg/day
same,TD50,"mouse, strain B6C3F1, females, in feed, site: liver, lesion: hepatocellular carcinoma, dosed 78 weeks, study length 95 weeks",29.7 mg/kg/day
same,TD50,"mouse, strain B6C3F1, females, in feed, site: lung, lesion: alveolar/bronchiolar adenoma + alveolar/bronchiolar carcinoma, dosed 78 weeks, study length 95 weeks",8760 mg/kg/day
same,carcinogen call,"mouse, strain B6C3F1, males, in feed, site: any site (literature study), lesion: several types, types named in the paper, dosed 78 weeks, study length 95 weeks",negative (inactive)
same,TD50,"mouse, strain B6C3F1, males, in feed, site: liver, lesion: hepatocellular adenoma + hepatocellular carcinoma + neoplastic nodule, dosed 78 weeks, study length 95 weeks",1090 mg/kg/day
same,TD50,[1],4.5 mg/kg/day
same,TD50,"rat, strain Fischer 344, females, in feed, site: liver + mammary gland, lesion: neoplastic nodule + adenocarcinoma, NOS, dosed 78 weeks, study length 106 weeks",6.74 mg/kg/day
same,TD50,[2],18.1 mg/kg/day
same,TD50,"rat, strain Fischer 344, females, in feed, site: liver, lesion: neoplastic nodule, dosed 78 weeks, study length 106 weeks",18.1 mg/kg/day
same,TD50,"rat, strain Fischer 344, females, in feed, site: mammary gland, lesion: adenocarcinoma, NOS, dosed 78 weeks, study length 106 weeks",11.4 mg/kg/day
same,TD50,"rat, strain Fischer 344, males, in feed, site: Zymbal's gland, lesion: squamous-cell carcinoma, dosed 78 weeks, study length 106 weeks",38.5 mg/kg/day
same,TD50,"rat, strain Fischer 344, males, in feed, site: adrenal gland, lesion: pheochromocytoma, dosed 78 weeks, study length 106 weeks",16.2 mg/kg/day
same,TD50,"rat, strain Fischer 344, males, in feed, site: any site (literature study), lesion: several types, types named in the paper, dosed 78 weeks, study length 106 weeks",6.85 mg/kg/day
same,TD50,"rat, strain Fischer 344, males, in feed, site: ear canal + Zymbal's gland, lesion: squamous-cell carcinoma + squamous-cell papilloma, dosed 78 weeks, study length 106 weeks",35.8 mg/kg/day
same,TD50,"rat, strain Fischer 344, males, in feed, site: liver + Zymbal's gland, lesion: hepatocellular carcinoma + neoplastic nodule + squamous-cell carcinoma, dosed 78 weeks, study length 106 weeks",3.55 mg/kg/day
same,TD50,"rat, strain Fischer 344, males, in feed, site: liver, lesion: hepatocellular adenoma + hepatocellular carcinoma + neoplastic nodule, dosed 78 weeks, study length 106 weeks",3.7 mg/kg/day
same,TD50,"rat, strain Fischer 344, males, in feed, site: liver, lesion: hepatocellular carcinoma + neoplastic nodule, dosed 78 weeks, study length 106 weeks",3.7 mg/kg/day
same,TD50,"rat, strain Fischer 344, males, in feed, site: liver, lesion: hepatocellular carcinoma, dosed 78 weeks, study length 106 weeks",4.67 mg/kg/day
CNc1ncnc2c1ncn2[C@@H]1O[C@H](CO)[C@@H](O)[C@H]1O,TD50,"mouse, strain Swiss CD-1, females, in drinking water, site: liver, lesion: several types, types named in the paper, dosed 34 weeks, study length 115 weeks",364 mg/kg/day (inactive)
same,carcinogen call,"mouse, strain Swiss CD-1, females, in drinking water, site: lung, lesion: one or several types, types not named, dosed 34 weeks, study length 115 weeks",negative (inactive)
same,TD50,"mouse, strain Swiss CD-1, males, in drinking water, site: liver, lesion: several types, types named in the paper, dosed 34 weeks, study length 118 weeks",108 mg/kg/day (inactive)
same,TD50,"mouse, strain Swiss CD-1, males, in drinking water, site: lung, lesion: one or several types, types not named, dosed 34 weeks, study length 118 weeks",55.6 mg/kg/day (inactive)
CC1CN1P(=O)(N1CC1C)N1CC1C (centres undefined),TD50,"rat, strain Sherman, males, by gavage, site: all sites, lesion: lymphatic leukemia, dosed 60 weeks, study length 60 weeks",4.46 mg/kg/day
FC(F)(Cl)Cl,TD50,"mouse, strain Swiss, females, inhaled, site: all sites, lesion: leukemia, dosed 78 weeks, study length 104 weeks",4100 mg/kg/day (inactive)
same,TD50,"mouse, strain Swiss, females, inhaled, site: any site (literature study), lesion: malignant tumor, dosed 78 weeks, study length 104 weeks",3320 mg/kg/day (inactive)
same,TD50,"mouse, strain Swiss, females, inhaled, site: any site (literature study), lesion: several types, types named in the paper, dosed 78 weeks, study length 104 weeks",59000 mg/kg/day (inactive)
same,TD50,"mouse, strain Swiss, females, inhaled, site: lung, lesion: adenoma, dosed 78 weeks, study length 104 weeks",91900 mg/kg/day (inactive)
same,TD50,"mouse, strain Swiss, males, inhaled, site: any site (literature study), lesion: malignant tumor, dosed 78 weeks, study length 104 weeks",33100 mg/kg/day (inactive)
same,TD50,"mouse, strain Swiss, males, inhaled, site: any site (literature study), lesion: several types, types named in the paper, dosed 78 weeks, study length 104 weeks",12100 mg/kg/day (inactive)
same,TD50,"mouse, strain Swiss, males, inhaled, site: lung, lesion: adenoma, dosed 78 weeks, study length 104 weeks",41900 mg/kg/day (inactive)
same,carcinogen call,"rat, strain Sprague-Dawley, females, inhaled, site: any site (literature study), lesion: malignant tumor, dosed 104 weeks, study length 104 weeks",negative (inactive)
same,carcinogen call,"rat, strain Sprague-Dawley, females, inhaled, site: any site (literature study), lesion: several types, types named in the paper, dosed 104 weeks, study length 104 weeks",negative (inactive)
same,TD50,"rat, strain Sprague-Dawley, females, inhaled, site: liver, lesion: angiosarcoma, dosed 104 weeks, study length 104 weeks",31300 mg/kg/day (inactive)
same,TD50,"rat, strain Sprague-Dawley, males, inhaled, site: adrenal gland, lesion: pheochromocytoma, dosed 104 weeks, study length 104 weeks",1320 mg/kg/day (inactive)
same,carcinogen call,"rat, strain Sprague-Dawley, males, inhaled, site: any site (literature study), lesion: malignant tumor, dosed 104 weeks, study length 104 weeks",negative (inactive)
same,TD50,"rat, strain Sprague-Dawley, males, inhaled, site: any site (literature study), lesion: several types, types named in the paper, dosed 104 weeks, study length 104 weeks",555 mg/kg/day (inactive)
same,carcinogen call,"rat, strain Sprague-Dawley, males, inhaled, site: liver, lesion: angiosarcoma, dosed 104 weeks, study length 104 weeks",negative (inactive)
CCC(CC)[N+](=O)[O-],TD50,"rat, strain Fischer 344, males, by gavage, site: liver, lesion: hepatocellular carcinoma, dosed 50 weeks, study length 83 weeks",3.05 mg/kg/day
same,TD50,"rat, strain Fischer 344, males, by gavage, site: liver, lesion: several types, types named in the paper, dosed 50 weeks, study length 83 weeks",2.37 mg/kg/day
CCOc1ccc(NC(C)=O)cc1[N+](=O)[O-],carcinogen call,"mouse, strain B6C3F1, females, in feed, site: any site (literature study), lesion: several types, types named in the paper, dosed 78 weeks, study length 97 weeks",negative (inactive)
same,TD50,"mouse, strain B6C3F1, females, in feed, site: lung, lesion: alveolar/bronchiolar adenoma + alveolar/bronchiolar carcinoma, dosed 78 weeks, study length 97 weeks",30800 mg/kg/day
same,TD50,"mouse, strain B6C3F1, males, in feed, site: any site (literature study), lesion: several types, types named in the paper, dosed 78 weeks, study length 98 weeks",3490 mg/kg/day
same,TD50,"mouse, strain B6C3F1, males, in feed, site: liver, lesion: hepatocellular adenoma + hepatocellular carcinoma + neoplastic nodule, dosed 78 weeks, study length 98 weeks",2270 mg/kg/day
same,TD50,"mouse, strain B6C3F1, males, in feed, site: liver, lesion: hepatocellular adenoma + hepatocellular carcinoma, dosed 78 weeks, study length 98 weeks",2270 mg/kg/day
same,carcinogen call,[1],negative (inactive)
same,TD50,[2],6240 mg/kg/day
same,carcinogen call,"rat, strain Fischer 344, males, in feed, site: any site (literature study), lesion: several types, types named in the paper, dosed 78 weeks, study length 105 weeks",negative (inactive)
